Measured values as given in publication PMC9519446, “Discovery of an Orally Active Benzoxaborole Prodrug Effective in the Treatment of Chagas Disease in Non-human Primates” (Nature microbiology, 2022).
Values joined by “and” are separate entries in the source; they are usually repeats but may differ in a detail not shown here. Equal values may be shown once.

Test: NHP health screening: serum chemistry
Assay type: in vivo, rhesus macaques (Macaca mulatta)
[1] = Mid-dosing bleed, treated animals, individual values
[2] = Post-dosing bleed, treated animals, individual values
[3] = Post-dosing bleed, Mean of treated F animals
[4] = Post-dosing bleed, individual treated animals
[5] = drug-treatment phase, returned to pre-study values by the final blood draw

## Cc1c(C(=O)N[C@H](C(=O)OCC2CCOCC2)C(C)C)ccc2c1B(O)OC2 [AN15368]
[1]
  Glob: 3.3 G/Dl and 3.1 G/Dl and 2.8 G/Dl and 3.4 G/Dl and 2.9 G/Dl and 4.1 G/Dl and 3.8 G/Dl and 2.7 G/Dl and 2.5 G/Dl and 3 G/Dl and 3.5 G/Dl and 3.2 G/Dl
  Gluc: 69 Mg/Dl and 72 Mg/Dl and 58 Mg/Dl and 65 Mg/Dl and 66 Mg/Dl and 56 Mg/Dl and 73 Mg/Dl and 55 Mg/Dl and 63 Mg/Dl and 70 Mg/Dl and 48 Mg/Dl and 54 Mg/Dl and 79 Mg/Dl and 68 Mg/Dl and 53 Mg/Dl
  K: 3.9 Meq/L and 3.6 Meq/L and 3.3 Meq/L and 3.4 Meq/L and 3.5 Meq/L and 4.3 Meq/L and 3.8 Meq/L and 3.7 Meq/L
  Ldh: 473 Iu/L and 139 Iu/L and 164 Iu/L and 148 Iu/L and 134 Iu/L and 214 Iu/L and 259 Iu/L and 376 Iu/L and 250 Iu/L and 266 Iu/L and 183 Iu/L and 238 Iu/L and 449 Iu/L and 154 Iu/L and 213 Iu/L and 475 Iu/L and 156 Iu/L and 198 Iu/L and 375 Iu/L
  Na: 148 Meq/L and 150 Meq/L and 147 Meq/L and 144 Meq/L and 149 Meq/L and 146 Meq/L and 152 Meq/L
  Osmo: 284 Mosm/Kg and 289 Mosm/Kg and 281 Mosm/Kg and 283 Mosm/Kg and 288 Mosm/Kg and 276 Mosm/Kg and 286 Mosm/Kg and 280 Mosm/Kg and 287 Mosm/Kg and 293 Mosm/Kg and 285 Mosm/Kg and 282 Mosm/Kg
  Phos: 3.3 Mg/Dl and 3.8 Mg/Dl and 2 Mg/Dl and 2.4 Mg/Dl and 1 Mg/Dl and 2.2 Mg/Dl and 3.9 Mg/Dl and 2.5 Mg/Dl and 3.6 Mg/Dl and 3.1 Mg/Dl and 1.8 Mg/Dl and 4.8 Mg/Dl and 3.2 Mg/Dl
  Tbil: 0.18 Mg/Dl and 0.17 Mg/Dl and 0.14 Mg/Dl and 0.2 Mg/Dl and 0.16 Mg/Dl and 0.19 Mg/Dl and 0.15 Mg/Dl and 0.13 Mg/Dl
  Tco2: 26 Meq/L and 28 Meq/L and 27 Meq/L and 25 Meq/L and 30 Meq/L and 24 Meq/L
  Tibc: 376 µg/dL and 358 µg/dL and 410 µg/dL and 408 µg/dL and 348 µg/dL and 343 µg/dL and 359 µg/dL and 373 µg/dL and 383 µg/dL and 429 µg/dL and 377 µg/dL and 326 µg/dL and 340 µg/dL and 412 µg/dL and 337 µg/dL and 324 µg/dL and 325 µg/dL
  Tp: 7.2 G/Dl and 6.7 G/Dl and 7.3 G/Dl and 7.5 G/Dl and 6.4 G/Dl and 7 G/Dl and 6.9 G/Dl and 6.5 G/Dl and 6.8 G/Dl and 6.6 G/Dl
  Trig: 99 Mg/Dl and 148 Mg/Dl and 81 Mg/Dl and 85 Mg/Dl and 108 Mg/Dl and 72 Mg/Dl and 32 Mg/Dl and 141 Mg/Dl and 65 Mg/Dl and 82 Mg/Dl and 79 Mg/Dl and 102 Mg/Dl and 29 Mg/Dl and 76 Mg/Dl and 70 Mg/Dl and 62 Mg/Dl and 66 Mg/Dl and 95 Mg/Dl
[2]
  Agap: 16 Meq/L and 14 Meq/L
  Alb: 3.9 G/Dl and 3.7 G/Dl
  Alp: 111 Iu/L and 100 Iu/L and 77 Iu/L
  Alt: 52 Iu/L and 63 Iu/L and 59 Iu/L
  Ast: 26 Iu/L and 34 Iu/L and 32 Iu/L
  Bun: 17 Mg/Dl and 14 Mg/Dl
  Ca: 9.5 Mg/Dl and 8.9 Mg/Dl
  Chol: 187 mg/dL and 193 mg/dL and 141 mg/dL
  Ck: 260 Iu/L and 337 Iu/L and 328 Iu/L
  Cl: 107 Meq/L and 111 Meq/L
  Crea: 0.58 Mg/Dl and 0.78 Mg/Dl and 0.68 Mg/Dl
  Fe: 135 µg/dL and 99 µg/dL and 93 µg/dL
  Ggt: 41 Iu/L and 54 Iu/L and 38 Iu/L
  Glob: 3.3 G/Dl and 3.1 G/Dl and 2.9 G/Dl
  Gluc: 63 Mg/Dl and 84 Mg/Dl and 51 Mg/Dl
  K: 3.5 Meq/L and 3.4 Meq/L
  Ldh: 217 Iu/L and 509 Iu/L and 322 Iu/L
  Na: 147 Meq/L and 146 Meq/L and 148 Meq/L
  Osmo: 283 Mosm/Kg and 281 Mosm/Kg and 284 Mosm/Kg
  Phos: 4.6 Mg/Dl and 3.2 Mg/Dl and 2.1 Mg/Dl
  Tbil: 0.19 Mg/Dl and 0.14 Mg/Dl and 0.12 Mg/Dl
  Tco2: 28 Meq/L and 26 Meq/L
  Tibc: 357 µg/dL and 333 µg/dL and 388 µg/dL
  Tp: 7.2 G/Dl and 6.8 G/Dl and 6.6 G/Dl
  Trig: 64 Mg/Dl and 152 Mg/Dl and 111 Mg/Dl
[3]
  Agap: 15.0556 Meq/L
  Alb: 3.833 G/Dl
  Alp: 103.5 Iu/L
  Alt: 52.5556 Iu/L
  Ast: 30.8889 Iu/L
  Bun: 14.9444 Mg/Dl
  Ca: 9.256 Mg/Dl
  Chol: 143.944 mg/dL
  Ck: 504.722 Iu/L
  Cl: 109.722 Meq/L
  Crea: 0.695 Mg/Dl
  Fe: 115.333 µg/dL
  Ggt: 47 Iu/L
  Glob: 3.178 G/Dl
  Gluc: 64.6667 Mg/Dl
  K: 3.617 Meq/L
  Ldh: 322.722 Iu/L
  Na: 147.667 Meq/L
  Osmo: 283.5 Mosm/Kg
  Phos: 3.244 Mg/Dl
  Tbil: 0.1383 Mg/Dl
  Tco2: 26.6111 Meq/L
  Tibc: 363.444 µg/dL
  Tp: 7.006 G/Dl
  Trig: 77.7222 Mg/Dl
[4]
  Agap: 14 Meq/L and 13 Meq/L and 17 Meq/L and 15 Meq/L and 19 Meq/L
  Alb: 3.7 G/Dl and 3.8 G/Dl and 3.6 G/Dl and 3.3 G/Dl and 3.5 G/Dl and 4.1 G/Dl and 4.2 G/Dl and 4 G/Dl and 3.4 G/Dl and 3.9 G/Dl
  Alp: 195 Iu/L and 100 Iu/L and 87 Iu/L and 122 Iu/L and 132 Iu/L and 143 Iu/L and 66 Iu/L and 83 Iu/L and 80 Iu/L and 105 Iu/L and 138 Iu/L and 102 Iu/L and 69 Iu/L and 79 Iu/L
  Alt: 97 Iu/L and 39 Iu/L and 41 Iu/L and 87 Iu/L and 35 Iu/L and 91 Iu/L and 28 Iu/L and 31 Iu/L and 48 Iu/L and 71 Iu/L and 43 Iu/L and 46 Iu/L and 64 Iu/L
  Ast: 40 Iu/L and 30 Iu/L and 31 Iu/L and 28 Iu/L and 27 Iu/L and 20 Iu/L and 42 Iu/L and 18 Iu/L and 26 Iu/L and 32 Iu/L and 45 Iu/L and 35 Iu/L
  Bun: 12 Mg/Dl and 16 Mg/Dl and 17 Mg/Dl and 10 Mg/Dl and 18 Mg/Dl and 15 Mg/Dl and 13 Mg/Dl and 20 Mg/Dl and 11 Mg/Dl and 14 Mg/Dl
  Ca: 9.1 Mg/Dl and 8.8 Mg/Dl and 9 Mg/Dl and 9.3 Mg/Dl and 9.8 Mg/Dl and 9.2 Mg/Dl and 9.6 Mg/Dl and 9.4 Mg/Dl and 9.5 Mg/Dl and 8.7 Mg/Dl
  Chol: 121 mg/dL and 130 mg/dL and 133 mg/dL and 163 mg/dL and 147 mg/dL and 123 mg/dL and 150 mg/dL and 157 mg/dL and 141 mg/dL and 125 mg/dL and 129 mg/dL and 155 mg/dL and 160 mg/dL and 115 mg/dL and 127 mg/dL
  Ck: 628 Iu/L and 657 Iu/L and 306 Iu/L and 255 Iu/L and 667 Iu/L and 292 Iu/L and 656 Iu/L and 625 Iu/L and 240 Iu/L and 479 Iu/L and 309 Iu/L and 783 Iu/L and 341 Iu/L and 1583 Iu/L and 339 Iu/L and 291 Iu/L
  Cl: 109 Meq/L and 111 Meq/L and 108 Meq/L and 113 Meq/L and 110 Meq/L and 107 Meq/L
  Crea: 0.68 Mg/Dl and 0.84 Mg/Dl and 0.9 Mg/Dl and 0.6 Mg/Dl and 0.64 Mg/Dl and 0.7 Mg/Dl and 0.75 Mg/Dl and 0.83 Mg/Dl and 0.62 Mg/Dl and 0.65 Mg/Dl and 0.78 Mg/Dl and 0.66 Mg/Dl and 0.53 Mg/Dl
  Fe: 123 µg/dL and 100 µg/dL and 104 µg/dL and 102 µg/dL and 72 µg/dL and 129 µg/dL and 105 µg/dL and 154 µg/dL and 174 µg/dL and 67 µg/dL and 109 µg/dL and 144 µg/dL and 159 µg/dL and 136 µg/dL
  Ggt: 47 Iu/L and 54 Iu/L and 63 Iu/L and 53 Iu/L and 51 Iu/L and 30 Iu/L and 52 Iu/L and 29 Iu/L and 39 Iu/L and 31 Iu/L and 89 Iu/L and 35 Iu/L and 42 Iu/L
  Glob: 3.3 G/Dl and 2.9 G/Dl and 4 G/Dl and 3.5 G/Dl and 3 G/Dl and 3.2 G/Dl and 2.7 G/Dl and 2.8 G/Dl and 3.4 G/Dl
  Gluc: 67 Mg/Dl and 57 Mg/Dl and 69 Mg/Dl and 65 Mg/Dl and 74 Mg/Dl and 62 Mg/Dl and 70 Mg/Dl and 48 Mg/Dl and 50 Mg/Dl and 58 Mg/Dl and 66 Mg/Dl and 75 Mg/Dl and 86 Mg/Dl and 44 Mg/Dl and 51 Mg/Dl
  K: 3.6 Meq/L and 3.5 Meq/L and 3.7 Meq/L and 4.4 Meq/L and 3.4 Meq/L and 3.8 Meq/L
  Ldh: 356 Iu/L and 197 Iu/L and 294 Iu/L and 209 Iu/L and 260 Iu/L and 107 Iu/L and 225 Iu/L and 392 Iu/L and 204 Iu/L and 300 Iu/L and 485 Iu/L and 796 Iu/L and 178 Iu/L and 365 Iu/L and 393 Iu/L and 524 Iu/L
  Na: 147 Meq/L and 150 Meq/L and 148 Meq/L and 151 Meq/L and 146 Meq/L and 149 Meq/L and 145 Meq/L
  Osmo: 281 Mosm/Kg and 288 Mosm/Kg and 283 Mosm/Kg and 282 Mosm/Kg and 284 Mosm/Kg and 291 Mosm/Kg and 280 Mosm/Kg and 286 Mosm/Kg and 279 Mosm/Kg and 287 Mosm/Kg
  Phos: 2.4 Mg/Dl and 1.8 Mg/Dl and 1.9 Mg/Dl and 2.7 Mg/Dl and 3.6 Mg/Dl and 3.8 Mg/Dl and 4.7 Mg/Dl and 2.9 Mg/Dl and 3.7 Mg/Dl and 5.2 Mg/Dl and 2.1 Mg/Dl and 4.6 Mg/Dl and 4.3 Mg/Dl and 4 Mg/Dl
  Tbil: 0.15 Mg/Dl and 0.13 Mg/Dl and 0.1 Mg/Dl and 0.14 Mg/Dl and 0.17 Mg/Dl and 0.12 Mg/Dl and 0.11 Mg/Dl and 0.16 Mg/Dl
  Tco2: 28 Meq/L and 30 Meq/L and 26 Meq/L and 25 Meq/L and 24 Meq/L and 29 Meq/L and 23 Meq/L
  Tibc: 379 µg/dL and 363 µg/dL and 332 µg/dL and 367 µg/dL and 386 µg/dL and 356 µg/dL and 359 µg/dL and 419 µg/dL and 437 µg/dL and 354 µg/dL and 325 µg/dL and 353 µg/dL and 316 µg/dL and 309 µg/dL
  Tp: 7 G/Dl and 6.7 G/Dl and 7.6 G/Dl and 6.8 G/Dl and 7.5 G/Dl and 7.1 G/Dl and 6.9 G/Dl and 7.2 G/Dl
  Trig: 78 Mg/Dl and 58 Mg/Dl and 56 Mg/Dl and 74 Mg/Dl and 63 Mg/Dl and 59 Mg/Dl and 42 Mg/Dl and 61 Mg/Dl and 158 Mg/Dl and 51 Mg/Dl and 44 Mg/Dl and 113 Mg/Dl and 93 Mg/Dl and 100 Mg/Dl
[5]
  alanine aminotransferase (ALT), mean value: mildly elevated
  alkaline phosphatase (ALP), mean value: mildly elevated
